The results in this text go back to patent US7371779B2, “Synergistic compositions of N-acylhomoserine lactones and 4-quinolones” (The Secretary of State for Defense Science and Technology, priority 2001, dated 2008).

Read-outs that look alike come from different tables or passages of the source.

The test system of one experiment is TNF-alpha. The experiment is described as follows: TNF-alpha production from LPS-stimulated human PBMC (sandwich ELISA). The experiment is classed as cell-based. To be noted: for IC50: Experiment III, read-out: IC50 in inhibition of LPS induced production of TNF-α by human PBMC. The method, then: Bacterial lipopolysaccharide (LPS) stimulates the production of a variety of cytokines, including TNF-alpha, from human PBMC; these cytokines in turn influence the development of T cells, supporting a T helper 1 conducive milieu. Human PBMC prepared from whole blood by buoyant density centrifugation were resuspended in CTCM. […] Following incubation for 24 h at 37° C. in 5% CO2-air, the cell culture supernatants were collected and tested for TNF-alpha levels by ‘sandwich’ ELISA. Briefly, 96-well Nunc MaxiSorp (Life Technologies, Paisley, UK) plates were coated with 50 μl of a 2 μg/ml solution of mouse anti-human TNF-alpha monoclonal antibody (Pharmingen, UK) in 0.05 M carbonate/bicarbonate buffer, pH 9.6 overnight at 4° C. After washing the plates three times with PBS-Tween, which contained phosphate buffered saline (PBS) with 0.5% (vol/vol) Tween 20 (Sigma, Poole, UK), the plates were blocked with 1% (wt/vol) bovine serum albumin (BSA) (Sigma, Poole, UK) at room temperature for 2 h. Following three washes with PBS-Tween, 50 μl of cell culture supernatants were added and incubated overnight at 4° C.; standard human TNF-alpha (Pharmingen, UK) ranging from 2000 to 31.25 pg/ml were included for each plate. After four washes with PBS-Tween, 50 μl of a second antibody, biotinylated mouse anti-human TNF-alpha monoclonal antibody (Pharmingen, UK) was added at 0.5 μg/1 ml diluted in 1% BSA in PBS-Tween and incubated at room temperature for 1 h. Following four washes, the bound biotinylated antibody was detected with 50 μl of a 1:1,000 dilution of Streptavidin-peroxidase (Pharmingen, UK). At the end of an hour incubation at room temperature, the plates were thoroughly washed six times with PBS-Tween and the assay was developed by the addition of 100 μl of 0.1 mg/ml of tetramethyl benzidine subtrate (Sigma, Poole, UK) in 0.1 M sodium acetate buffer, pH 6 containing 0.03% H2O2. The enzyme reaction was stopped with 50 μl of 2.5 M H2SO4 after an incubation of 10 minutes at room temperature and the development was read at 450 nm with a spectrophotometric 96-well plate reader (Dynex).
A general note: In an ELISA, binding on a coated surface is turned into a signal by an enzyme label.

The next experiment relates to human PBMC. The experiment is described as follows: ConA mitogen-stimulated proliferation of human PBMC ([3H]-thymidine incorporation). The experiment is classed as cell-based. To be noted: for IC50: Experiment II, read-out: IC50 in inhibition of ConA induced cell proliferation of PBMC. The method, then:
Blood specimens were obtained with consent from healthy human volunteers. Human peripheral blood mononuclear cells (PBMC) were isolated from heparinised whole blood by buoyant density centrifugation over Histopaque 1077 (Sigma, Poole, UK) at 600 g for 20 minutes. PBMC harvested from the ‘buffy’ layers were washed twice with RPMI 1640 medium and resuspended in CTCM. […] Human PBMC were incubated for 48 h at 37° C. in 5% CO2-air, followed by pulsing with 0.25 μCi [^3H]-thymidine (see above). After a further incubation of 24 h cells were harvested onto fibreglass filters and then counted in the presence of MicroScint-O with the Packard TopCount.
Concanavalin induced cell proliferation of human peripheral blood mononuclear cells (PBMC) was tracked, as described in I above, by a measurement of counts per minute using the scintillation counter. The inhibitory effect of an HSL compound being tested on cell proliferation was indicated by a reduction in counts per minute. […] Columns B, C and D represent different sources of human PBMC samples used.
Plots of counts per minute (cpm) against the concentration of the quorum sensing molecules and the vehicle are shown in FIG. 11.

For a further experiment, the system named is murine splenocytes. The experiment is described as follows: ConA mitogen-stimulated proliferation of murine splenocytes ([3H]-thymidine incorporation). The settings on record: ConA 1 μg/ml, 100,000 spleen cells, Experiment I; read-out: IC50 in inhibition of ConA induced murine splenocyte proliferation. The format is cell-based, mouse (BALB/c). The method, then:
(§1) Proliferation was assessed by the incorporation of [^3H]-thymidine into DNA. Eight-week-old female BALB/c mice were obtained from Harlan (Bicester, Oxon, UK) and given food and water ad libitum. Splenocyte suspensions were prepared by removing the spleens and placing them into RPMI 1640 medium. The spleens were forced through 70-μm-pore-size wire gauzes using the plunger from a 5-ml syringe to produce a single cell suspension. The cells were pelleted by centrifugation, and erythrocytes were lysed with 0.017 M Tris, 0.144 M ammonium chloride buffer, pH 7.2. Leucocytes were washed twice with RPMI 1640 medium with 2% (vol/vol) foetal calf serum (FCS) and resuspended in complete cell culture medium (CTCM) consisting of RPMI 1640 medium with 5% FCS, 2 mM L-glutamine, and 5×10^−5 M 2-mercaptoethanol. HSL compounds were tested at doubling down dilutions ranging from 1 mM to 0.1 μM in a final volume of 200 μl of CTCM, containing ConA (Sigma, Poole, UK) at 1 μg/ml and 100,000 spleen cells. Following incubation for 48 h at 37° C. in 5% CO2-air, 0.25 μCi [^3H]-thymidine (Amersham) in 10 μl volume made up in RPMI 1640 medium was added and the cells were incubated for a further 24 h. Cells were harvested onto fibreglass filters with a Packard filtermate harvester. After the addition of 25 μl of MicroScint-O (Packard) to each well the filters were counted with the Packard TopCount scintillation counter.
Mitogen (Concanavalin A) induced murine splenocyte proliferation was indicated by the incorporation of tritated thymidine into the DNA in the mouse spleen cells as shown by counts per minute using the scintillation counter. The inhibitory effect of an HSL compound being tested on cell proliferation was indicated by a reduction in counts per minute.
as §1, with “70 μm pore size” for “70-μm-pore-size”, “5 ml” for “5-ml”, “The title compound was” for “HSL compounds were”, “dilutions” for “dilutions ranging from 1 mM to 0.1 μM in a final volume of 200 μl of CTCM,”, “g/ml” for “μg/ml”, “COrair,” for “CO2-air,”
Mitogen (Concanavalin A) induced murine splenocyte proliferation was indicated by the incorporation of tritated thymidine into the DNA in the mouse spleen cells as shown by counts per minute using the scintillation counter. The inhibitory effect of the title compound being tested on cell proliferation was indicated by a reduction in counts per minute.
A general note: Uptake of a labelled nucleoside into DNA is a usual measure of proliferation.

Regarding `O=C(CCCCCCCCCBr)CC(=O)N[C@H]1CCOC1=O` [Example 7, N-(12-Bromo-3-oxododecanoyl)-L-homoserine lactone], the IC50 in the experiment on TNF-alpha came to 63 µM; in the experiment with human PBMC (human PBMC source B) it was 20 µM; in the experiment on human PBMC (human PBMC source D), 7 µM; in the experiment on murine splenocytes it was 6 µM.

As for `CCCCCCCCCCCC(=O)CC(=O)N[C@H]1CCOC1=O` [Example 11, N-(3-Oxotetradecanoyl)-L-homoserine lactone], the IC50 is 35 µM in the experiment on TNF-alpha; 32 µM in the experiment on human PBMC (human PBMC source B); 12 µM in the experiment on human PBMC (human PBMC source C); 30 µM with human PBMC (human PBMC source D); 6 µM in the experiment with murine splenocytes. The “inhibition of LPS induced TNF-α production by human PBMC, in words” value in the experiment with TNF-alpha (LPS-stimulated human PBMC) was “inhibited the secretion”. In addition, the “inhibition of ConA induced proliferation of human PBMC (cpm), in words” value in the experiment with human PBMC (ConA 1 μg/ml) is “inhibited proliferation of human PBMC”.
